Measurements reported in patent publication US4831029A, “Condensed cyclic triazole derivatives, pharmaceutical compositions and use” (priority 1986, dated 1989).
Where a name gives a salt, the structure may show the parent alone.

Assays:
Format in all cases: in vivo
[1] = Hexobarbital narcosis potentiating effect; settings: for Hexobarbital narcosis potentiating effect T.I. (therapeutical index): narcosis potentiation; for ED50: positive = narcosis time lengthened to at least 2.5-fold of control
Method: In the hexobarbital narcosis potentiating test those animals are regarded as showing positive reaction in which the average narcosis time is lengthened to at least 2.5-fold of that of the control group.
The ED50 values are calculated from the data thus transformed.

[2] = Motility inhibiting effect; settings: for Motility inhibiting effect T.I. (therapeutical index): motility inhibition; for ED50: read-out: Motility inhibiting effect ED50
Excerpt: (§1) The following test methods are used: Motility inhibition test: J. Borsy, E. Csanyi, J. Lazar: J. Arch. Int. Pharmacodyn. 124, 1-2 (1960); Inhibition of tetracor spasms: R. Benzinger, D. Hane: Arch. Int Pharmacodyn. 167, 245-249 (1967).

[3] = Spasmolytic effect (inhibition of tetracor spasms); settings: for ED50: inhibition of tetracor spasms
Excerpt: as §1

[4] = Yohimbine potentiating effect
Method: The yohimbine potentiating effect is determined by the method of R. M. Quinton: Brit. […] Scand.

## CCCC(C)(COC(N)=O)COC(N)=O [Meprobamat, reference compound]
[1]
  Hexobarbital narcosis potentiating effect T.I. (therapeutical index): 4.1
  ED50: 260 mg/kg
[2]
  Motility inhibiting effect T.I. (therapeutical index): 4.1
  ED50: 270 mg/kg

## CN1C(=O)OC(C)(C)C1=O [Trimetadion, reference compound]
[3]
  ED50: 490 mg/kg

## O=c1c2c(n(CCN3CCCCC3)c3nc(N4CCOCC4)nn13)CCN(Cc1ccccc1)C2 [Example 18, 7-Benzyl-2-morpholino-10-(2-piperidinoethyl)-6,7,8,9-tetrahydro-pyrido[4,3-d]-1,2,4-triazolo[1,5-a]pyrimidine-5(10H)-one]
[3]
  Spasmolytic effect T.I. (therapeutical index): 6.6
  ED50: 150 mg/kg

## O=c1c2c(n(CCN3CCCCC3)c3nc(N4CCOCC4)nn13)CN(Cc1ccccc1)CC2 [Example 19c, 8-Benzyl-2-morpholino-10-(2-piperidino-ethyl)-6,7,8,9-tetrahydro-pyrido[3,4-d]-1,2,4-triazolo[1,5-a]pyrimidine-5(10H)-one]
[3]
  Spasmolytic effect T.I. (therapeutical index): 6.7
  ED50: 150 mg/kg
[4]; T.I.=therapeutical index, yohimbine potentiation
  Yohimbin potentiating effect T.I. (therapeutical index): 47

## CN(C)CCCn1c2c(c(=O)n3nc(N4CCOCC4)nc13)CCN(Cc1ccccc1)C2 [Example 19, 8-Benzyl-10-(3-dimethylaminopropyl)-2-morpholino-6,7,8,9-tetrahydro-pyrido[3,4-d]-1,2,4-triazolo[1,5-a]pyrimidine-5(10H)-one]
[1]
  Hexobarbital narcosis potentiating effect T.I. (therapeutical index): 6.0
  ED50: 200 mg/kg
[2]
  Motility inhibiting effect T.I. (therapeutical index): 6.0
[2]; motility inhibition test
  ED50: 200 mg/kg

## O=c1c2c(n(CCN3CCCC3)c3nc(N4CCOCC4)nn13)CN(Cc1ccccc1)CC2 [Example 20, 8-Benzyl-2-morpholino-10-(2-pyrrolidinoethyl)-6,7,8,9-tetrahydro-pyrido[3,4-d]-1,2,4-triazolo[1,5-a]pyrimidine-5(10H)-one]
[3]
  Spasmolytic effect T.I. (therapeutical index): 6.5
  ED50: 155 mg/kg

## CN(C)CCC=C1c2ccccc2CCc2ccccc21 [Amitriptilin, reference compound]
[4]; method of Quinton, read-out: Yohimbin potentiating effect ED50
  ED50: 12.5 mg/kg

## CSc1nc2n(CCCN3CCOCC3)c3c(c(=O)n2n1)CN(Cc1ccccc1)CC3 [Example 19g, 7-Benzyl-2-methylthio-10-(3-morpholino-propyl)-6,7,8,9-tetrahydro-pyrido[4,3-d]-1,2,4-triazolo[1,5-a]pyrimidine-5(10H)-one fumarate]
[3]
  Spasmolytic effect T.I. (therapeutical index): 8.5
  ED50: 100 mg/kg
